According to DBAASP:
In brackets after ≈: the same amount, converted by molar mass.

Assays:
Assay in all cases: ≥ marks a high value that may be exact or a test limit, other limits are often not marked, values filed in µg/mL are converted to µM
[1] = test system: Pseudomonas putida NCIM 2102
[2] = test system: Escherichia coli W160-37
[3] = test system: Bacillus subtilis
[4] = test system: Staphylococcus aureus ATCC 8530
[5] = test system: Saccharomyces cerevisiae ATCC 8530
[6] = test system: Micrococcus luteus MT166
[7] = test system: Salmonella typhimurium CCARM 8009
[8] = test system: Listeria monocytogenes KCTC 3710
[9] = test system: Trichosporon beigelii KCTC 7707
[10] = test system: Escherichia coli CCARM 1238
[11] = test system: Staphylococcus aureus CCARM 3114
[12] = test system: Pseudomonas aeruginosa KCTC 1637
[13] = test system: Staphylococcus epidermidis ATCC 12228
[14] = test system: Escherichia coli CCARM 1229
[15] = test system: Pseudomonas aeruginosa 4007
[16] = test system: Aspergillus fumigatus KCTC 6145
[17] = test system: Proteus vulgaris KCTC 2433
[18] = test system: Bacillus subtilis KCTC 1998
[19] = test system: Pseudomonas aeruginosa 3547
[20] = test system: Listeria monocytogenes ATCC 19115
[21] = test system: Staphylococcus epidermidis KCTC 3096
[22] = test system: Pseudomonas aeruginosa ATCC 15692
[23] = test system: Aspergillus awamori KCTC 6915
[24] = test system: Salmonella typhimurium KCTC 1926
[25] = test system: Aspergillus flavus KCTC 6905
[26] = test system: Salmonella typhimurium CCARM 8013
[27] = test system: Aspergillus parasiticus KCTC 6598
[28] = test system: Staphylococcus aureus PBEL
[29] = test system: Bacillus subtilis KCTC 1918
[30] = test system: Staphylococcus aureus CCARM 3089
[31] = test system: Candida albicans KCTC 7270
[32] = test system: Pseudomonas aeruginosa ATCC 27853
[33] = test system: Pseudomonas aeruginosa CMCCB 1010
[34] = test system: Enterococcus faecalis ATCC 29212
[35] = test system: Pseudomonas aeruginosa
[36] = test system: Klebsiella pneumoniae ATCC 700603
[37] = test system: Escherichia coli 117
[38] = test system: Shigella dysenteriae
[39] = test system: Enterobacter cloacae ATCC 13047
[40] = test system: Staphylococcus aureus 37
[41] = test system: Candida albicans ATCC 2002
[42] = test system: Escherichia coli 218
[43] = test system: Escherichia coli 37
[44] = test system: Candida albicans ATCC 90028
[45] = test system: Escherichia coli ATCC 25922
[46] = test system: Klebsiella pneumoniae
[47] = test system: Candida parapsilosis ATCC 22019
[48] = test system: Staphylococcus aureus ATCC 25923
[49] = test system: Pseudomonas aeruginosa PAO1
[50] = test system: Pseudomonas aeruginosa 919
[51] = test system: Pseudomonas aeruginosa 910
[52] = test system: Pseudomonas aeruginosa 253

CC[C@H](C)[C@@H]1NC(=O)[C@H](CCSC)NC(=O)[C@H]([C@@H](C)O)NC(=O)[C@@H](NC(=O)[C@@H](N)Cc2ccccc2)CSSC[C@@H](C(=O)N[C@@H](Cc2ccc(O)cc2)C(N)=O)NC(=O)[C@H](CCCN=C(N)N)NC(=O)[C@@H]2CCCN2C(=O)[C@H]([C@@H](C)CC)NC(=O)[C@@H]2CCCN2C1=O [FCTMIPIPRCY]
MIC [1]: 29.8 µM (≈ 39.9 µg/mL) | MIC [2]: 29.8 µM (≈ 39.9 µg/mL) | MIC [3]: 22.3 µM (≈ 29.9 µg/mL) | MIC [4]: 22.3 µM (≈ 29.9 µg/mL) | MIC [5]: ≥ 59.5 µM | MIC [6]: 14.9 µM (≈ 20 µg/mL)

CC[C@H](C)[C@H](NC(=O)[C@H](CCCCN)NC(=O)[C@H](CCCCN)NC(=O)[C@H](Cc1ccccc1)NC(=O)[C@H](CC(C)C)NC(=O)[C@H](CCCCN)NC(=O)[C@H](CCCCN)NC(=O)[C@H](CC(C)C)NC(=O)[C@H](CCCN=C(N)N)NC(=O)[C@H](CCCCN)NC(=O)[C@@H](N)Cc1ccccc1)C(=O)N[C@@H](Cc1c[nH]c2ccccc12)C(=O)N[C@@H](CC(N)=O)C(=O)N[C@@H](Cc1c[nH]c2ccccc12)C(=O)N[C@@H](CCCCN)C(N)=O [FKRLKKLFKKIWNWK]
MIC [7]: 4 µM (≈ 8.25 µg/mL) | MIC [8]: 2 µM (≈ 4.13 µg/mL) | MIC [9]: 16 µM (≈ 33 µg/mL) | MIC [10]: 2 µM (≈ 4.13 µg/mL) | MIC [11]: 2 µM (≈ 4.13 µg/mL) | MIC [12]: 2 µM (≈ 4.13 µg/mL) | MIC [13]: 2.83 µM (≈ 5.83 µg/mL) | MIC [14]: 2 µM (≈ 4.13 µg/mL) | MIC [15]: 1 µM (≈ 2.06 µg/mL) | MIC [16]: 4 µM (≈ 8.25 µg/mL) | MIC [17]: 8 µM (≈ 16.5 µg/mL) | MIC [18]: 2 µM (≈ 4.13 µg/mL) | MIC [19]: 4 µM (≈ 8.25 µg/mL) | MIC [20]: 2 µM (≈ 4.13 µg/mL) | MIC [21]: 2.83 µM (≈ 5.83 µg/mL) | MIC [22]: 2 µM (≈ 4.13 µg/mL) | MIC [23]: 16 µM (≈ 33 µg/mL) | MIC [24]: 2 µM (≈ 4.13 µg/mL) | MIC [25]: 16 µM (≈ 33 µg/mL) | MIC [26]: 1 µM (≈ 2.06 µg/mL) | MIC [27]: 8 µM (≈ 16.5 µg/mL) | MIC [28]: 1 µM (≈ 2.06 µg/mL) | MIC [29]: 2 µM (≈ 4.13 µg/mL) | MIC [30]: 2 µM (≈ 4.13 µg/mL) | MIC [31]: 8 µM (≈ 16.5 µg/mL)

CC[C@H](C)[C@H](NC(=O)[C@H](C)NC(=O)[C@H](CCCCN)NC(=O)[C@H](CC(C)C)NC(=O)[C@@H](N)CC(N)=O)C(=O)N[C@@H](C)C(=O)N[C@@H](C)C(=O)N[C@@H](CC(C)C)C(=O)N[C@@H](C)C(=O)N[C@@H](CCCCN)C(=O)N[C@@H](CCCCN)C(=O)N[C@@H](CC(C)C)C(=O)N[C@@H](CC(C)C)C(=O)O [NLKAIAALAKKLL]
MIC [32]: 29.3 µM (≈ 40 µg/mL) | MIC [33]: 14.6 µM (≈ 20 µg/mL) | MIC [34]: 3.66 µM (≈ 5 µg/mL) | MIC [35]: 7.32 µM (≈ 10 µg/mL) | MIC [36]: 14.6 µM (≈ 20 µg/mL) | MIC [37]: 14.6 µM (≈ 20 µg/mL) | MIC [38]: 14.6 µM (≈ 20 µg/mL) | MIC [39]: 7.32 µM (≈ 10 µg/mL) | MIC [40]: 7.32 µM (≈ 10 µg/mL) | MIC [41]: 7.32 µM (≈ 10 µg/mL) | MIC [42]: 7.32 µM (≈ 10 µg/mL) | MIC [43]: 3.66 µM (≈ 5 µg/mL) | MIC [44]: 7.32 µM (≈ 10 µg/mL) | MIC [45]: 14.6 µM (≈ 20 µg/mL) | MIC [46]: 7.32 µM (≈ 10 µg/mL) | MIC [47]: 29.3 µM (≈ 40 µg/mL) | MIC [48]: 3.66 µM (≈ 5 µg/mL)

CC[C@H](C)[C@H](NC(=O)[C@H](CCCN=C(N)N)NC(=O)[C@H](Cc1c[nH]c2ccccc12)NC(=O)[C@H](CC(C)C)NC(=O)[C@@H](N)CCCN=C(N)N)C(=O)N[C@H](C(=O)N[C@H](C(=O)N[C@H](C(=O)N[C@@H](CCCN=C(N)N)C(=O)N[C@H](C(=O)N[C@@H](CCCCN)C(=O)N[C@@H](CCCN=C(N)N)C(N)=O)C(C)C)[C@@H](C)CC)C(C)C)C(C)C [RLWRIVVIRVKR]
MIC [49]: 16 µM (≈ 25.5 µg/mL) | MIC [50]: ≥ 32 µM | MIC [51]: ≥ 32 µM | MIC [52]: 16 µM (≈ 25.5 µg/mL)
